{"source": "patent US8603818B1", "about": "“TGF-beta receptor inhibitors to enhance direct reprogramming” (The General Hospital Corporation, priority 2008, dated 2013)", "key": {"[1]": {"tested_on": "Sox2, cMyc, Nanog expression in infected MEFs", "procedure": "MEFs were infected with various factor combinations, then treated with dox for three days in the presence or absence of […] Alk5 inhibitor (1 μM). qPCR analysis was done using primers that specifically detect endogenous Sox2 or cMyc, as well as total Nanog. Experiments were done with both biological and technical triplicates, and a Student's T-test (paired, two-tailed) was used to assess statistical significance.\nRNA was extracted by using a Qiagen RNeasy kit (74104), then converted to cDNA with the Superscript III First-Strand synthesis system (Invitrogen) using oligo-dT primers. qRT-PCRs were carried out using Brilliant II SYBR Green mix (Stratagene) and run on a Stratagene MXPro400. Reactions were carried out in duplicate with -RT controls, and data were analyzed using the delta-delta Ct method."}, "[2]": {"tested_on": "four-factor infected MEFs", "assay": "iPSC induction in four-factor infected MEFs (dox-inducible lentiviruses)", "assay_type": "cell-based, mice", "settings": "for efficiency of iPSC formation / iPSC colonies per well: 1 ng/mL ligand during dox induction, dox 12d, counts day 16", "procedure": "2A. Alkaline phosphatase stain for primary iPSC colonies, treated with or without the Alk5 inhibitor (1 μM) during dox induction. MEFs were infected with four factors and colonies were stained on day 12 (8d+dox/4d−dox).\n2B. Kinetics of reprogramming in MEFs infected with four factors.\n2D. Dose-response curve for the Alk5 inhibitor in MEFs induced with four factors.\n2E Effect of TGF-β ligands in reprogramming, using four-factor infected MEFs (dox for 12d; counts on day 16 based on Oct4 immunostaining). TGF-β concentrations: low, 1 ng/mL; medium, 2.5 ng/mL; high, 5 ng/mL.\n2F. Timing of Alk5 inhibitor action. The Alk5 inhibitor (1 μM) was applied in 4-day time intervals. Control=no inhibitor, Full-time=inhibitor added days 1-16.\n2G. […] Inhibitor (1 μM) was applied for either 3 days before (−3 to 0d) or during the first 3 days of dox induction (0 to +3d), or both (−3d to +3d). Control=no inhibitor.\nTo induce reprogramming, MEFs were infected with a reverse tetracycline transactivator (rtTA) transgene with doxycycline-inducible lentiviruses encoding the four reprogramming factors as previously described (Stadtfeld, M., et al., (2008) Cell Stem Cell 2, 230-240).\nIt was next sought to establish a dose-response curve for the Alk5 inhibitor. Using four-factor infected MEFs, concentrations of the Alk5 inhibitor were tested over a 1000-fold range, from 4 nM to 4 μM. […] To verify that manipulation of TGF-β signaling affects reprogramming, it was investigated whether pathway activation would inhibit iPSC formation. Using four-factor infected MEFs, increasing concentrations of TGF-β1 or TGF-β2 were applied during the time of dox induction.\nTo gain further insight into the mode of action of the Alk5 inhibitor, the temporal window during which the inhibitor elicited its strongest effect was examined. In four-factor infected MEFs, the inhibitor was applied in 4-day intervals from days 0-16 of reprogramming. […] To test this, the inhibitor was applied in 3-day time intervals: before dox administration (days −3 to 0) to test for a priming effect, during the first 3 days of reprogramming (days 0 to +3) as a control for the efficiency increase, during both intervals (days−3 to +3) to test for a synergistic effect, and a no-inhibitor control as a baseline measure (FIG. 1G)."}, "[3]": {"tested_on": "secondary MEF lines", "settings": "inhibitor 2 μM, colonies day 16", "method": "Kinetics of reprogramming in two secondary MEF lines. Dox was applied for either 4, 6, 8, or 10 days, with or without the Alk5 inhibitor (2 μM). Colonies were quantified on day 16 based on morphology and dox independence.\nTo this end, we employed a “secondary system” consisting of MEFs isolated from iPSC-derived chimeras.\nIn two different secondary MEF lines, the effect of Alk5 inhibition on both the efficiency and kinetics of reprogramming was tested. In this experiment, dox was applied for 4, 6, 8, or 10 days, either in the presence or absence of the Alk5 inhibitor, then quantified iPSC colony number on day 16."}, "[4]": {"tested_on": "secondary STEMCCA MEFs", "assay": "Dose-response of iPSC induction in secondary STEMCCA MEFs", "assay_type": "cell-based, mice", "description": "3B. Dose-response curve for the Alk5 inhibitor in secondary STEMCCA MEFs.\nSecondary STEMCCA MEFs were used to establish another dose-response curve for the Alk5 inhibitor."}, "[5]": {"tested_on": "Sox2-GFP fibroblasts", "description": "1A. Effect of Alk5 inhibitor treatment on the number of Sox2-GFP+iPS colonies\nFibroblasts cultures were established from mice expressing green-fluorescent protein (GFP) from the genomic locus of the pluripotency gene Sox2. Sox2-GFP fibroblasts were then infected with viruses expressing the reprogramming factors c-Myc, Klf4, Oct4 and Sox2 in the presence and absence of a chemical inhibitor highly specific for the TGF-beta receptor Alk5 (ALK5 inhibitor H). GFP+colonies with embryonic stem (ES) cell morphology were scored 20 days after infection."}, "[6]": {"tested_on": "Secondary cells carrying the polycistronic STEMCCA construct", "settings": "dox 2 days; inhibitor 1 μM", "procedure": "7B. Annexin V and propidium iodide (PI) staining to quantify apoptosis during iPSC induction. […] Annexin V-positive and PI-negative cells represent the fraction of living cells in the process of apoptosis.\nAnnexin V and propidium iodide staining was done using the Annexin V-FITC kit (BD Pharmingen, 556547) according to manufacturer directions. Cells were analyzed by flow cytometry on a FACSCalibur (BD)."}, "[7]": {"tested_on": "MEFs infected with OSK or OSMK", "settings": "inhibitor 1 μM", "description": "7A. […] Cells were counted at each timepoint noted, and values represent the fractional change in cell number: (fraction of starting cell number at timepoint b−fraction of starting cell number at timepoint a)/time between b and a.\nIn support of this, it has been shown that activation of TGF-β signaling can promote an epithelial-to-mesenchymal transition (Valcourt, U., et al., (2005) Mol Biol Cell 16, 1987-2002); fibroblast reprogramming involves a mesenchymal-to-epithelial conversion, which may be enhanced by inhibition of the TGF-β signaling pathway."}, "[8]": {"tested_on": "primary MEFs", "assay": "Replacement of reprogramming factors in primary MEFs infected with factor combinations (OSK, OMK, OK)", "method": "Replacement of the role of cMyc with the Alk5 inhibitor (1 μM). MEFs were infected with either three (OSK) or four (OSMK) factors. Dox was withdrawn on day 8 and colonies were quantified on day 12 based on morphology and dox independence.\nReplacement of the role of Sox2 with the Alk5 inhibitor (1 μM). MEFs were infected with three (OMK) or two (OK) factors and induced with dox for 16 days, then split on day 18 into media without dox. Image depicts alkaline phosphatase stain of passage 1 cultures.\nExperiments were designed to investigate whether the Alk5 inhibitor could function to replace exogenous expression of any of the reprogramming factors. To this end, primary MEFs were infected with different combinations of the four factors in the presence or absence of inhibitor (FIG. 4) and then scored for iPSC formation.\nFor all of the other replacement conditions, dox was withdrawn on day 16, which would provide sufficient time for reprogramming. […] Nonetheless, colonies were picked from both conditions and tested for their potential to form dox-independent lines."}, "[9]": {"tested_on": "human fibroblast", "settings": "data not shown"}, "[10]": {"tested_on": "embryonic stem cells+MEFs", "assay": "Reprogramming by cell fusion", "settings": "data not shown"}, "[11]": {"settings": "2.5 ng/mL ligand during dox induction"}, "[12]": {"settings": "5 ng/mL ligand during dox induction"}}, "note": "Read-outs that look alike come from different tables or passages of the source."}
{"molecule": "Cc1cccc(-c2n[nH]cc2-c2ccc3ncccc3n2)n1", "note": "[Alk5 inhibitor, 2-(3-(6-Methylpyridin-2-yl)-1H-pyrazol-4-yl)-1,5 napththyridine]", "values": [{"measurement": "induction of cMyc", "setting": "[1]; cells infected with OSK, dox three days, inhibitor 1 μM", "result": 1.3, "unit": "fold"}, {"measurement": "change in expression of other genes (Sox2: OMK, OSMK; cMyc: OSMK; Nanog: OMK, OSK, OSMK)", "setting": "[1]; dox three days, inhibitor 1 μM", "result": "No other genes showed a statistically significant change"}, {"measurement": "induction of Sox2 or cMyc", "setting": "[1]; other cells (OMK or OSMK)", "result": "no significant induction"}, {"measurement": "effect of inhibitor use during reprogramming on the resulting iPSCs (pluripotency markers, teratoma)", "setting": "[2]; 4-day iPSCs", "result": "no adverse effect"}, {"measurement": "frequency of iPSC colonies", "setting": "[2]; four days of dox, inhibitor 2 μM, counted day 16", "result": 0.0013, "unit": "%"}, {"measurement": "enhancement in number of iPSC colonies", "setting": "[2]; highest dose tested (range 4 nM to 4 μM), dox and inhibitor 8 days, Oct4 immunostaining day 12", "result": 30, "unit": "fold"}, {"measurement": "reprogramming efficiency by timing of inhibitor", "setting": "[2]; inhibitor 1 μM applied after dox withdrawal (day 12)", "result": "no effect"}, {"measurement": "reprogramming efficiency by timing of inhibitor", "setting": "[2]; inhibitor 1 μM applied during 5-8 day interval", "result": "strong enhancement"}, {"measurement": "reprogramming efficiency by timing of inhibitor", "setting": "[2]; inhibitor 1 μM applied during first four days, dox withdrawn day 12, counts day 16", "result": "largest increase in efficiency"}, {"measurement": "number of iPSC colonies (alkaline phosphatase stain)", "setting": "[2]; inhibitor 1 μM during dox induction, stained day 12 (8d+dox/4d−dox)", "result": "striking increase"}, {"measurement": "enhancement in efficiency", "setting": "[2]; inhibitor 1 μM during first 3 days of factor expression (0 to +3d)", "result": "−5", "unit": "fold"}, {"measurement": "increase in efficiency", "setting": "[2]; inhibitor 1 μM in −3d/+3d group", "result": "comparable to the 0 to +3d group"}, {"measurement": "reprogramming efficiency, priming test", "setting": "[2]; inhibitor 1 μM prior to factor expression (days 3 to 0), dox withdrawn day 8, counts day 12", "result": "slight reduction in efficiency"}, {"measurement": "iPSC formation", "setting": "[2]; three days of dox, inhibitor 2 μM, counted day 16", "result": "not obtained"}, {"measurement": "increase in reprogramming", "setting": "[3]; one secondary MEF line", "result": 2, "unit": "fold"}, {"measurement": "increase in reprogramming", "setting": "[3]; the other secondary MEF line", "result": 30, "unit": "fold"}, {"measurement": "increase in efficiency at maximum", "setting": "[4]; at 0.5 μM", "result": "~60", "unit": "fold"}, {"measurement": "efficiency at higher doses", "setting": "[4]; doses above the maximum", "result": "began to decline"}, {"measurement": "concentration giving maximum efficiency", "setting": "[4]; dox and inhibitor 8 days, Oct4 immunostaining day 12", "result": 0.5, "unit": "µM"}, {"measurement": "fold more GFP+ colonies with ES cell morphology", "setting": "[5]; four factors, scored 20 days after infection, versus absence of inhibitor", "result": "5-10 fold"}, {"measurement": "onset of GFP expression in colonies", "setting": "[5]; versus colonies formed in the absence of the chemical", "result": "earlier"}, {"measurement": "apoptosis, Annexin V staining, inhibitor-treated versus untreated cells", "setting": "[6]", "result": "negligible difference"}, {"measurement": "proliferation during reprogramming", "setting": "[7]; around day 6", "result": "decrease in proliferation"}, {"measurement": "cell number early in reprogramming", "setting": "[7]; day 2", "result": "mitigated the decrease in cell number"}, {"measurement": "colony formation in the absence of both cMyc and Sox2", "setting": "[8]; OK + inhibitor 1 μM", "result": "could not be obtained"}, {"measurement": "dox-independent colonies after passage without dox", "setting": "[8]; OMK+inhibitor 1 μM", "result": "gave rise to dox-independent colonies"}, {"measurement": "colony formation in cMyc replacement condition", "setting": "[8]; OSK+inhibitor, day 8", "result": "colonies were observed"}, {"measurement": "picked colonies forming dox-independent iPSC lines", "setting": "[8]; Sox2 replacement condition (OMK), inhibitor-treated culture", "result": "3/22"}, {"measurement": "colonies morphologically identical to iPSCs", "setting": "[8]; Sox2 replacement condition (OMK), inhibitor-treated culture, dox 16 days", "result": 50, "unit": "colonies"}, {"measurement": "efficiency of OSK+inhibitor relative to four factors alone (OSK+M)", "setting": "[8]; inhibitor 1 μM, dox withdrawn day 8, colonies day 12", "result": 2.5, "unit": "fold"}, {"measurement": "increase in the efficiency of human fibroblast reprogramming", "setting": "[9]", "result": "not observed"}, {"measurement": "effect on reprogramming by cell fusion", "setting": "[10]", "result": "negative result"}]}
{"molecule": "TGF-β1: TGF-β ligand obtained from Peprotech", "values": [{"measurement": "efficiency of iPSC formation", "setting": "[2]", "result": "~0.0013", "unit": "%"}, {"measurement": "iPSC colonies per well", "setting": "[2]", "result": "one"}, {"measurement": "iPSC formation", "setting": "[2]; [11]", "result": "undetectable"}, {"measurement": "iPSC formation", "setting": "[2]; [12]", "result": "undetectable"}]}
{"molecule": "TGF-β2: TGF-β ligand obtained from Peprotech (protein, UniProt P61812 303-414, looked up) Transforming growth factor …: ALDAAYCFRNVQDNCCLRPLYIDFKRDLGWKWIHEPKGYNANFCAGACPYLWSSDTQHSRVLSLYNTINPEASASPCCVSQDLEPLTILYYIGKTPKIEQLSNMIVKSCKCS", "values": [{"measurement": "efficiency of iPSC formation", "setting": "[2]", "result": "~0.0013", "unit": "%"}, {"measurement": "iPSC colonies per well", "setting": "[2]", "result": "one"}, {"measurement": "iPSC formation", "setting": "[2]; [11]", "result": "undetectable"}, {"measurement": "iPSC formation", "setting": "[2]; [12]", "result": "undetectable"}]}
